Results: article PMC6695453, “Peptide translocation by the lysosomal ABC transporter TAPL is regulated by coupling efficiency and activation energy” (Scientific Reports, 2019)

Key:
[1] = system: PatA/PatB; details: transport and NTP hydrolysis, 37 °C; cited from earlier work
Text: Both nucleotides show the same Km and kcat values in respect of NTP hydrolysis. […] NTP dependent transport was found also for other ABC transporters. […] The full-length ABC transport Pdr5 from yeast hydrolyzes GTP and even UTP, but ...

[2] = biological target: T1, TAPL (Homo sapiens, UniProt Q9NP78); details: GTP vs ATP; cited from earlier work
T1 construct: Human coreTAPL (Q9NP78 UniProt, amino acid 143–766) fused C-terminally to mVenus; made in house; host or cells: Pichia pastoris SMD1168-His+
T1 sequence (Q9NP78 143-766): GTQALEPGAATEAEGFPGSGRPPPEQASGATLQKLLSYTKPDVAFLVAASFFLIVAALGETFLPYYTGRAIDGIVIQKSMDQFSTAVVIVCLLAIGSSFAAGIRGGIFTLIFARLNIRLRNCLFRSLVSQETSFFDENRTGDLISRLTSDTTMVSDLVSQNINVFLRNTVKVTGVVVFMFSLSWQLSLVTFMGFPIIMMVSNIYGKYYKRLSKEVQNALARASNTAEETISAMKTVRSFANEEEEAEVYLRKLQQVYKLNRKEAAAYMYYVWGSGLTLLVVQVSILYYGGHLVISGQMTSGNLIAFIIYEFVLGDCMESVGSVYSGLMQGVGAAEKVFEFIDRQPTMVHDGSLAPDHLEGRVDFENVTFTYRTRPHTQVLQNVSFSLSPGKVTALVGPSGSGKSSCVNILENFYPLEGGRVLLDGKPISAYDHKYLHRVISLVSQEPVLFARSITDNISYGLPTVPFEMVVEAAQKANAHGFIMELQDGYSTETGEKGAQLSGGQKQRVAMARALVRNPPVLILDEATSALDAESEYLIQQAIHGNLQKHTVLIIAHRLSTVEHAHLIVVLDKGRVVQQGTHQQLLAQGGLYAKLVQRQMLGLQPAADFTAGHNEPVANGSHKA
Text: To decipher the coupling between nucleotide hydrolysis and peptide transport, we intended to reduce futile hydrolysis cycles without translocating peptides. Assuming a kinetic effect where ATP binding and subsequent ATP hydrolysis is much faster than peptide binding, a more stoichiometric coupling should be obtained with decreasing ATP concentrations. Therefore, we determined Michaelis-Menten kinetics of nucleotide hydrolysis and peptide transport with decreasing nucleotide concentrations. For sensitivity reasons, we switched from the colorimetric malachite green based assay to a radioactive b ...

[3] = biological target: TmrAB (Thermus thermophilus, UniProt Q72J04+Q72J05); test: NTP dependent peptide transport by TmrAB; details: 68 °C, 9-mer^FL peptide
[4] = system: P-gp; details: cited from earlier work
Text: Other ABC transporters like P-glycoprotein have a biphasic substrate dependent ATPase activity. […] Basal ATPase activity of MRP1 is 3-fold stimulated by its substrate leucotriene C4, which forms contacts to both halfs o ...

SMILES | nucleotide preference of PatA/PatB (in words) [1] | fuelling of peptide transport vs ATP (in words) [2] | fold decreased transport rate for GTP compared to ATP, TmrAB [3] [fold] | effect on P-gp transport and ATP hydrolysis (in words) [4]
Nc1nc2c(ncn2[C@@H]2O[C@H](COP(=O)(O)OP(=O)(O)OP(=O)(O)O)[C@@H](O)[C@H]2O)c(=O)[nH]1 [GTP] | strongly prefers GTP over ATP | to a lower extend than ATP | 6 | 
O[C@@H](COc1cccc2ncccc12)CN1CCN([C@@H]2c3ccccc3[C@@H]3[C@H](c4ccccc42)C3(F)F)CC1 [Zosuquidar] |  |  |  | inhibits transport but stimulates ATP hydrolysis
